Reference: a melting point compilation (Tetko et al.; mined from patent text by program, amines drawn as free bases though some values may be those of a salt)

Molecule `Cc1c(C)c2c(c(C)c1O)CCC(C)(C(=O)NCC1(c3ccc(-n4c(C)ccc4C)cc3)CCCC1)O2` (stereo not drawn) has a melting point of 90 to 94 °C.
`CCCCCCCCCCCCC1=C(OC(=O)CC)C(=O)c2ccccc2C1=O` gave a melting point of 42 to 44 °C.
For `Fc1ccc(-c2[nH]cc(C3=CC4CCC(C3)N4)c2-c2ccncc2)cc1` (stereo not drawn), the melting point was 212 to 213 °C.
`COC(=O)c1cc(COC(C)=O)cc(-n2cccc2C#N)c1` gave a melting point of 85 to 86 °C.
`CS(=O)(=O)CC(=O)NCCn1ccc2ncnc(Nc3ccc(Oc4cccc(OC(F)(F)F)c4)c(Cl)c3)c21` gave a melting point of 133 to 135 °C.
In the case of `CC(C)(O)CCCCc1ccc(C=Cc2ccc(CO)c(CO)c2)cc1`, the melting point is reported as 102 to 104 °C.
`CN(C(=O)CCCOc1ccc([N+](=O)[O-])c(C=O)c1)C1CCCCC1` gave a melting point of 98 to 100 °C.
With `O=C1c2cc(O)ccc2OCC1n1ccnc1` (stereo not drawn) the melting point was 245 to 247 °C.
Molecule `Cc1cc(-n2cnnn2)cc2ccoc12` has a melting point of 118 °C.
For `O=C(O)C1CCc2cc(O)ccc21` (stereo not drawn), the melting point was 137 to 138 °C.
`CCOC(=O)c1cnn(C)c1C(=O)Nc1ccn2nc(N(C)C)nc2c1` showed a melting point of 193 to 195 °C.
Molecule `O=C(c1cc2c(cc1Cl)OCO2)N1CCOCC1` has a melting point of 155 °C.
`CC(=O)NCC1OC(=O)N2c3ccc(-c4ccccc4)cc3CC12` (stereo not drawn) showed a melting point of 181 to 183 °C.
With `COC(=O)C1Cc2c([nH]c3ccccc23)C(c2ccc(Cl)cc2Cl)N1` (stereo not drawn) the melting point was 128 to 130 °C.
With `c1ccc(-c2cc(CCC3CCNC3)c3ccccc3n2)cc1` (stereo not drawn) the melting point was 140 °C.
Work on `CCCCCCCCCCCCCCCCCC(=O)NCC(O)CO` (single isomer, unassigned; (+)) yielded a melting point of 112 to 114 °C.
With `CC(C)c1c(O)ccc2cnc(Nc3ccccc3)nc12` the melting point was 103 to 104 °C.
`CC(c1ccc(I)cc1)C(O)(Cn1cncn1)c1ccc(F)cc1F` (stereo not drawn) gave a melting point of 169 to 171 °C.
With `COc1cc(-c2ccc(C#N)cc2)cc(C=O)c1O` the melting point was 177 to 178 °C.
In the case of `CCOc1c(C2=C(C(C)(C)C)C(C)(C)CO2)oc2ccc(OC)cc12`, the melting point is reported as 60 to 61 °C.
Molecule `COc1ccc(-n2c(=O)c(C(=O)O)nc3c(Cl)cccc32)cc1` has a melting point of 198 to 200 °C.
`COc1ccc(C2Sc3c(ccc4ccccc34)N(CCN(C)C)C(=O)C2OC(C)=O)cc1` (stereo not drawn) gave a melting point of 122 to 124 °C.
In the case of `O=C(CCCCCCNS(=O)(=O)c1ccc(C(=O)Nc2ccc(Cl)c(-c3ccccn3)c2)c(Cl)c1)NO`, the melting point is reported as 159 °C.
`COc1cc(Nc2c(C#N)cnc3cc(-c4ccc(CN5CCOCC5)s4)ccc23)c(Cl)cc1Cl` showed a melting point of 188 °C.
Work on `O=CNCC1Cc2ccccc2Cc2ccccc21` (stereo not drawn) yielded a melting point of 109 to 111 °C.
Molecule `NC1([C@@H]2CCN(c3ccc4c(=O)c(C(=O)O)cn([C@@H]5C[C@@H]5F)c4c3Cl)C2)CC1` has a melting point of 128 to 130 °C.
`CCCCCN(CCCCC)CCC(O)(P(=O)(O)O)P(=O)(O)O` showed a melting point of 47 to 49 °C.
Molecule `CC(C)(C)c1cc(CCc2ccc(F)cc2NC(=O)NC2CCN(Cc3ccccc3)CC2)cc(C(C)(C)C)c1O` has a melting point of 118 to 119 °C.
For `CN(C)C(=S)Nc1ccc(NNC=O)cc1`, the melting point was 187 to 189 °C.
For `Oc1c(C23CC4CC(CC(C4)C2)C3)ccc2ccccc12`, the melting point was 209 to 210 °C.
Work on `Cc1nc(N)c2nc(C)n(NC3CCOCC3)c2c1C` yielded a melting point of 240 to 242 °C.
In the case of `Oc1c(Br)cc(-c2c3ccccc3c(I)c3sc4ccccc4c23)cc1Br`, the melting point is reported as 221 to 222 °C.
`COc1ccc(-c2c[nH]c3c(OC)ccc(OC)c3c2=O)cc1` gave a melting point of 124 to 125 °C.
With `Nc1ccc(OC(F)(F)C(F)F)cc1[N+](=O)[O-]` the melting point was 83.9 to 84.4 °C.
`C=CC1CCC2c3ccc(OCC)c(F)c3OC2C1` (stereo not drawn) gave a melting point of 141 °C.
`O=C1NC2Cc3ccccc3C2O1` (stereo not drawn) gave a melting point of 205 to 206 °C.
`CC(=O)OC1CSC(Oc2cccc(-c3nccs3)c2)C(OC(C)=O)C1OC(C)=O` (stereo not drawn) showed a melting point of 65 °C.
`N#Cc1c(Br)cc(Br)c(CCC(=O)O)c1Br` gave a melting point of 164 to 166 °C.
Molecule `Fc1ccc2c(CCCC3CNCc4c3[nH]c3cnc5cc(Cl)ccc5c43)noc2c1` (stereo not drawn) has a melting point of 221 to 222 °C.
Work on `CCCCNC(=O)N1C2=NC(C)(C)N(C)C(=O)N2c2ccccc21` yielded a melting point of 95 to 97 °C.
For `NS(=O)(=O)c1ccc(-c2cnn(Cc3ccc(F)c(F)c3F)c(=O)c2-c2ccc(F)cc2)cc1`, the melting point was 218 to 220 °C.
Molecule `NC(=O)c1ccc(C(F)(F)F)c(N)c1` has a melting point of 147 to 149 °C.
`CC(=O)Oc1ccc(Cl)nc1` gave a melting point of 45 to 47 °C.
Work on `COc1c(S(=O)C(F)(F)F)c(C#N)nn1-c1c(Cl)cc(C(F)(F)F)cc1Cl` (stereo not drawn) yielded a melting point of 136 to 137 °C.
For `CCCCCCCCCCCC(=O)N(CCO)CCNCCO`, the melting point was 94 °C.
With `Cn1cc(-c2cc(-c3cnc4[nH]ncc4c3)ccn2)n(-c2ccc(C(C)(C)C#N)cc2)c1=O` the melting point was 294 °C.
Work on `CCCCCC[C@@H]1C[C@H](c2ccc(O)cc2)C(=O)O1` yielded a melting point of 87 to 88 °C.
With `Brc1ccc2c(C3CCNCC3)n[nH]c2c1` the melting point was 163 to 165 °C.
With `O=C(O)c1cc(Cl)n2cnnc2c1` the melting point was 249 to 251 °C.
In the case of `CC(C)Oc1ccc(-c2nn(C(C)c3oc4cccc(F)c4c(=O)c3-c3cccc(F)c3)c3ncnc(N)c23)cc1F` (stereo not drawn), the melting point is reported as 228 to 230 °C.
Work on `CNC(=O)N(C(=O)Nc1ccccc1)c1ccccc1` yielded a melting point of 145 to 147 °C.
Molecule `CCCCCCNc1ccc(Oc2ccc3nc(COc4ccc(CC5SC(=O)NC5=O)cc4)n(C)c3c2)cc1` (stereo not drawn) has a melting point of 177 to 179 °C.
`COc1cc(CO)c(-c2ccc(OCCC(C)CCCC(C)C)cc2)cc1CO` (stereo not drawn) gave a melting point of 101 °C.
With `COc1cc(I)cc(OC)c1` the melting point was 73 to 74 °C.
`Clc1ccc2c(n1)C(c1ccccc1Cl)NCc1nncn1-2` (stereo not drawn) gave a melting point of 206 to 208 °C.
For `COc1cc2c(cc1OC)CC(N1CC(O)CC1=O)CC2` (stereo not drawn), the melting point was 178 to 179 °C.
Molecule `O=C(NNC1NS(=O)(=O)c2ccccc21)Oc1ccccc1` (stereo not drawn) has a melting point of 216 °C.
Molecule `CCOC(=O)C(C)(C)OC(=O)c1cc(-n2c(=O)cc(C(F)(F)F)[nH]c2=O)ccc1Cl` has a melting point of 176 to 177 °C.
Work on `COC(=O)c1ccccc1C=NC(C)(C(N)=O)C(C)C` (stereo not drawn) yielded a melting point of 79 to 80.5 °C.
Work on `O=C(NC(=O)C(c1ccccc1)c1ccccc1)OC1CCCCC1` yielded a melting point of 117 to 119 °C.
Work on `C#CCN(Cc1cc2c(=O)[nH]c(COS(C)(=O)=O)nc2cc1Cl)c1ccc(C(=O)OC(C)(C)C)cc1` yielded a melting point of 178 to 181 °C.
With `O=c1[nH]c(N2CCNC(CO)C2)cc2ccccc12` (stereo not drawn) the melting point was > 120 °C.
With `CN(C)CCCOc1ccc(C=CC(=O)N2CCc3c([nH]c4ccccc34)C2c2ccc3c(c2)CCO3)cc1` (stereo not drawn) the melting point was 186 °C.
`CCCc1nc(CSc2ccc(CCC(=O)O)cc2)c(C(=O)OCC)n1Cc1cc2c(cc1Cl)OCO2` gave a melting point of 174 °C.
`Nc1ncnc2ncn(CCO)c12` showed a melting point of 132 to 133 °C.
`COc1ncnc(Cl)c1[N+](=O)[O-]` gave a melting point of 65 °C.
In the case of `CC(C)CCCC(C)C1CCC2C3CC=C4CC(OC(=O)C(C)(C)CO)CCC4(C)C3CCC12C` (stereo not drawn), the melting point is reported as 174 to 176 °C.
`O=C(c1ccccc1)c1c(Cl)cc2n1CCC2C(=O)O` (stereo not drawn) showed a melting point of 190 °C.
`CC(C)OC(=O)c1cc(-n2c(=O)[nH]c3c(c2=O)CCC3)c(Br)cc1Br` gave a melting point of 223 to 226 °C.
In the case of `CCOC(=O)C(CC)(CC)CCS(N)(=O)=O`, the melting point is reported as 93 to 94 °C.
With `Cc1cc(C)cc(COC[C@@H](NC(=O)OC(C)(C)C)c2ccccc2)c1` the melting point was 46 to 49 °C.
Molecule `O=C1OC(=O)C(c2ccc(Cl)cc2)=C1Cl` has a melting point of 110 to 112 °C.
Work on `CC(C)COC(=O)Oc1ccc2c(c1)OCN(CCO[N+](=O)[O-])C2=O` yielded a melting point of 82 to 84 °C.
